The text below walks through data of ChEMBL document CHEMBL2331118, “A facile three-component [3+2]-cycloaddition for the regioselective synthesis of highly functionalised dispiropyrrolidines acting as antimycobacterial agents” (Bioorg Med Chem Lett, 2013).

The IC50 is the midpoint of a concentration-inhibition curve. What is called EC50 is the concentration giving half of the maximal effect. A word on the EC90: it is the point of the concentration-response curve where the effect stands at 90%. A word on the MIC: it is the least concentration at which growth counts as inhibited.

Each structure is given as a SMILES string. Values after ≈ are worked out from the molar mass of the structure shown.

In one experiment the test system is Vero. Kind of experiment: Cytotoxicity against african green monkey Vero cells after 72 hrs by MTT assay. The following applies: Chlorocebus sabaeus. In kind it is cell-based. In general terms: Tetrazolium assays rely on reduction of a dye to a coloured formazan, in cell work by metabolically active cells.
The test system of experiment [1] is Mycobacterium tuberculosis. Kind of experiment: Antitubercular activity against Mycobacterium tuberculosis H37Rv by BacTiter-Gl Microbial Cell Viability assay. In kind it is functional, organism-based.
Experiment [2] has as its system Mycobacterium tuberculosis. Kind of experiment: Antitubercular activity against Mycobacterium tuberculosis H37Rv by microdilution alamar Blue broth assay. In kind it is functional, organism-based.
The test system of experiment [3] is Mycobacterium tuberculosis. Kind of experiment: Ratio of pyrimethamine MIC to compound MIC for Mycobacterium tuberculosis H37Rv by BacTiter-Gl Microbial Cell Viability assay. Format: functional.
Experiment [4] has as its system Mycobacterium tuberculosis. Briefly: Ratio of pyrimethamine EC90 to compound EC90 for Mycobacterium tuberculosis H37Rv by BacTiter-Gl Microbial Cell Viability assay. Format: functional.
Experiment [5] deals with Mycobacterium tuberculosis. Kind of experiment: Ratio of pyrimethamine EC50 to compound EC50 for Mycobacterium tuberculosis H37Rv by BacTiter-Gl Microbial Cell Viability assay. Format: functional.
Experiment [6] deals with Mycobacterium tuberculosis. Kind of experiment: Ratio of cycloserine MIC to compound MIC for Mycobacterium tuberculosis H37Rv by BacTiter-Gl Microbial Cell Viability assay. Format: functional.
In experiment [7] the test system is Mycobacterium tuberculosis. Kind of experiment: Ratio of cycloserine EC90 to compound EC90 for Mycobacterium tuberculosis H37Rv by BacTiter-Gl Microbial Cell Viability assay. In kind it is functional.
For experiment [8], the system named is Mycobacterium tuberculosis. Kind of experiment: Ratio of cycloserine EC50 to compound EC50 for Mycobacterium tuberculosis H37Rv by BacTiter-Gl Microbial Cell Viability assay. In kind it is functional.

`N[C@@H]1CONC1=O` [CYCLOSERINE]: the IC50 in the experiment with Vero was greater than 62.5 µg/mL. In addition, in experiment [1], the midpoint of the response, the EC50, lay at 23.6 µM; the 90% effect level (EC90) was put at 26.4 µM; 100 µM (≈ 10.2 µg/mL) was the least that counted as inhibitory (MIC). In experiment [2], this molecule gave an EC50 of 24.8 µM, a 90% effect concentration (EC90) of 28 µM and an MIC of 100 µM (≈ 10.2 µg/mL).

As for `CN1C[C@H](c2ccc(N3CCCCC3)cc2)[C@]2(Cc3ccccc3C2=O)[C@]12C(=O)c1cccc3cccc2c13`, the IC50 in the experiment on Vero is greater than 62.5 µg/mL. In addition, in experiment [1], the half-maximal effective concentration (EC50) was 17.8 µM and the EC90 is greater than 100 µM. Moreover, in experiment [2], the EC50 was greater than 100 µM and the 90% effect concentration (EC90) was greater than 100 µM.

`COc1ccc(OC)c([C@H]2CN(C)[C@@]3(C(=O)c4cccc5cccc3c45)[C@@]23Cc2ccccc2C3=O)c1` showed a half-inhibitory concentration (IC50) with Vero greater than 62.5 µg/mL. In experiment [1], the EC50 came out at 9.56 µM and the 90% effect concentration (EC90) is greater than 100 µM. In [2], this molecule yielded a 50% effective concentration (EC50) of 68 µM and a 90% effect concentration (EC90) greater than 100 µM.

As to `CN1C[C@H](c2ccccc2)[C@]2(Cc3ccccc3C2=O)[C@]12C(=O)c1cccc3cccc2c13`, the IC50 with Vero is greater than 62.5 µg/mL. Also, in [1], the EC50 was greater than 100 µM and the EC90 was greater than 100 µM. In experiment [2], this molecule showed an EC50 greater than 100 µM and an EC90 greater than 100 µM.

For `CN1C[C@H](c2ccc(OC(F)(F)F)cc2)[C@]2(Cc3ccccc3C2=O)[C@]12C(=O)c1cccc3cccc2c13`, in the experiment on Vero, the concentration for half-maximal inhibition (IC50) is greater than 62.5 µg/mL. In experiment [1], the 50% effective concentration (EC50) is 8.51 µM, the EC90 was found to be 26.1 µM and it took 50 µM (≈ 25.7 µg/mL) to inhibit growth (MIC). In [2], this molecule showed an EC50 of 36.6 µM and a 90% effect concentration (EC90) greater than 100 µM.

In turn, `CO[C@H]1/C=C/O[C@@]2(C)Oc3c(C)c(O)c4c(O)c(c(/C=N/N5CCN(C)CC5)c(O)c4c3C2=O)NC(=O)/C(C)=C\C=C\[C@H](C)[C@H](O)[C@@H](C)[C@@H](O)[C@@H](C)[C@H](OC(C)=O)[C@@H]1C` [RIFAMPIN] had an IC50 with Vero greater than 62.5 µg/mL. Also, in experiment [1], the 50% effective concentration (EC50) is 0.02 µM, it took 0.03 µM to reach the 90% level (EC90) and the minimum inhibitory concentration (MIC) was determined as 0.04 µM (≈ 0.0329 µg/mL). In experiment [2], this molecule came in with an EC50 of 0.02 µM, a concentration for an effect of 90% (EC90) of 0.02 µM and an MIC of 0.16 µM (≈ 0.132 µg/mL).

`CC[C@@H](CO)NCCN[C@@H](CC)CO` [ETHAMBUTOL] gave a half-inhibitory concentration (IC50) in the experiment on Vero greater than 62.5 µg/mL. For the same molecule, in experiment [1], the midpoint of the response, the EC50, lay at 1.5 µM; the 90% effect level (EC90) was put at 1.64 µM; 6.25 µM (≈ 1.28 µg/mL) was the least that counted as inhibitory (MIC). Also, in experiment [2], the 50% effective concentration (EC50) is 3.45 µM and the 90% effect concentration (EC90) was greater than 200 µM.

In the experiment on Vero, `CN1C[C@H](c2ccc(N3CCOCC3)cc2)[C@]2(Cc3ccccc3C2=O)[C@]12C(=O)c1cccc3cccc2c13` showed an IC50 greater than 62.5 µg/mL. Moreover, the half-maximal effective concentration (EC50) in [1] is 18.9 µM; in experiment [2] it was greater than 100 µM. Moreover, the EC90 in experiment [1] and in [2] was greater than 100 µM in each case.

With `COc1ccc([C@H]2CN(C)[C@@]3(C(=O)c4cccc5cccc3c45)[C@@]23Cc2ccccc2C3=O)cc1`, in the experiment with Vero, the half-inhibitory concentration (IC50) is greater than 62.5 µg/mL. Further, in experiment [1], the EC50 came out at 13.4 µM, the concentration for an effect of 90% (EC90) amounted to 62.4 µM and it took 100 µM (≈ 46 µg/mL) to inhibit growth (MIC). In experiment [2], this molecule had an EC50 of 40.9 µM and a concentration for an effect of 90% (EC90) greater than 100 µM.

In the experiment on Vero, `CN1C[C@H](c2cncc(-c3ccc(F)cc3)c2)[C@]2(Cc3ccccc3C2=O)[C@]12C(=O)c1cccc3cccc2c13` returned a 50% inhibitory concentration (IC50) greater than 62.5 µg/mL. In addition, in experiment [1], the 50% effective concentration (EC50) was determined as 64.5 µM and the 90% effect concentration (EC90) is greater than 100 µM. Moreover, in experiment [2], the concentration giving a half-maximal response (EC50) was greater than 100 µM and the EC90 is greater than 100 µM.

Molecule `NNC(=O)c1ccncc1` [ISONIAZID] displayed a concentration for half-maximal inhibition (IC50) in the experiment with Vero greater than 62.5 µg/mL. In experiment [1], this molecule had an EC50 of 0.13 µM, an EC90 of 0.2 µM and an MIC of 0.31 µM (≈ 0.0425 µg/mL). Further, in [2], the EC50 came to 0.19 µM and the 90% effect concentration (EC90) is greater than 5 µM.

As for `CN1C[C@H](c2cccc3c2OCO3)[C@]2(Cc3ccccc3C2=O)[C@]12C(=O)c1cccc3cccc2c13`, in the experiment with Vero, the IC50 was greater than 62.5 µg/mL. Moreover, in [1], the EC50 stood at 11.5 µM, the EC90 is greater than 100 µM and it took 100 µM (≈ 47.4 µg/mL) to inhibit growth (MIC). Moreover, in experiment [2], the response was half-maximal at 63.8 µM (EC50) and the EC90 is greater than 100 µM.

As to `CN1C[C@H](c2cccc([N+](=O)[O-])c2)[C@]2(Cc3ccccc3C2=O)[C@]12C(=O)c1cccc3cccc2c13`, in the experiment with Vero, the IC50 was greater than 62.5 µg/mL. In experiment [1], the EC50 amounted to 10.1 µM and the EC90 was greater than 100 µM. For the same molecule, in experiment [2], the EC50 turned out to be 77.5 µM and the EC90 is greater than 100 µM.

In the experiment with Vero, `CCc1nc(N)nc(N)c1-c1ccc(Cl)cc1` [PYRIMETHAMINE] registered an IC50 greater than 62.5 µg/mL. In [1], this molecule showed a concentration for a half-maximal effect (EC50) of 24.3 µM, a 90% effect concentration (EC90) of 46.4 µM and a minimal inhibitory concentration (MIC) of 100 µM (≈ 24.9 µg/mL). In experiment [2], this molecule came in with an EC50 of 25.1 µM, a concentration for an effect of 90% (EC90) of 28 µM and a minimum inhibitory concentration (MIC) of 100 µM (≈ 24.9 µg/mL).

Turning to `CN(C)c1ccc([C@H]2CN(C)[C@@]3(C(=O)c4cccc5cccc3c45)[C@@]23Cc2ccccc2C3=O)cc1`, the 50% inhibitory concentration (IC50) with Vero is greater than 62.5 µg/mL. In [1], this molecule yielded a 50% effective concentration (EC50) of 9.87 µM, an EC90 of 55.3 µM and an MIC of 100 µM (≈ 47.3 µg/mL). In [2], this molecule had an EC50 of 56 µM and a 90% effect concentration (EC90) greater than 100 µM.

Turning to `CN1C[C@H](c2ccc(Br)cc2)[C@]2(Cc3ccccc3C2=O)[C@]12C(=O)c1cccc3cccc2c13`, the 50% inhibitory concentration (IC50) in the experiment on Vero is greater than 62.5 µg/mL. Moreover, the Ratio in [3] is greater than 8; in experiment [4], 4.3; in experiment [6], greater than 8; in experiment [7], 2.45. Further, the entries for the “Ratio EC50” value in experiment [5] and in [8] were 11 and 10.7, respectively. In addition, the EC50 in experiment [1] stood at 2.2 µM; in experiment [2] it was 15.1 µM. The values for the EC90 in experiment [1] and in experiment [2] were 10.8 µM and greater than 100 µM, respectively. The MIC in experiment [1] worked out at 12.5 µM (≈ 6.36 µg/mL).

For `CN1C[C@H](c2ccc(C(=O)O)cc2)[C@]2(Cc3ccccc3C2=O)[C@]12C(=O)c1cccc3cccc2c13`, the concentration for half-maximal inhibition (IC50) with Vero is greater than 62.5 µg/mL. In [1], this molecule displayed an EC50 of 20.7 µM, an EC90 greater than 100 µM and an MIC of 100 µM (≈ 47.4 µg/mL). In experiment [2], the EC50 was found to be 69.2 µM, the EC90 is 99.7 µM and the minimum inhibitory concentration (MIC) was 100 µM (≈ 47.4 µg/mL).

Molecule `CN1C[C@H](c2ccc(C(F)(F)F)cc2)[C@]2(Cc3ccccc3C2=O)[C@]12C(=O)c1cccc3cccc2c13` gave a half-maximal inhibitory concentration (IC50) in the experiment with Vero greater than 62.5 µg/mL. In [1], this molecule had a concentration for a half-maximal effect (EC50) of 3.21 µM, a 90% effect concentration (EC90) of 12.3 µM and a minimum inhibitory concentration (MIC) of 50 µM (≈ 24.9 µg/mL). In experiment [2], the EC50 is 23.4 µM and the concentration for an effect of 90% (EC90) was greater than 100 µM.

Consider `NCC[C@H](O)C(=O)N[C@@H]1C[C@H](N)[C@@H](O[C@H]2O[C@H](CN)[C@@H](O)[C@H](O)[C@H]2O)[C@H](O)[C@H]1O[C@H]1O[C@H](CO)[C@@H](O)[C@H](N)[C@H]1O` [AMIKACIN], for which the 50% inhibitory concentration (IC50) in the experiment on Vero is greater than 62.5 µg/mL. Also, in [1], the EC50 came out at 0.07 µM, it took 0.12 µM to reach the 90% level (EC90) and the lowest concentration to inhibit growth (MIC) was 0.16 µM (≈ 0.0937 µg/mL). In experiment [2], this molecule displayed an EC50 of 0.12 µM, an EC90 of 0.14 µM and a minimal inhibitory concentration (MIC) of 0.16 µM (≈ 0.0937 µg/mL).

With `CN1C[C@H](c2ccc(Cl)cc2)[C@]2(Cc3ccccc3C2=O)[C@]12C(=O)c1cccc3cccc2c13`, the concentration for half-maximal inhibition (IC50) in the experiment on Vero was greater than 62.5 µg/mL. Further, in [1], the concentration giving a half-maximal response (EC50) amounted to 6.27 µM, the 90% effect level (EC90) was put at 29.6 µM and it took 50 µM (≈ 23.2 µg/mL) to inhibit growth (MIC). In experiment [2], this molecule came in with a 50% effective concentration (EC50) of 68.5 µM and a concentration for an effect of 90% (EC90) greater than 100 µM.
